What was measured:
Format in all cases: cell-based, human
[1] = tested on: E-selectin, ICAM-1 and VCAM-1 expression on T. cruzi-infected EA.hy926 and HUVEC cells; test: Endothelial cell adhesion molecule surface expression by flow cytometry / immunofluorescence; details: EA.hy926
Description: Then, cells were infected with trypomastigotes at a MOI of 10 and incubated for 16 hours. Cells were detached with 1X EDTA-PBS at 0.5 mM. The harvested cells were washed with cold PBS and centrifuged at 800 x g for 5 minutes. Then, cells were washed with flow cytometry buffer three times. 100 μL of cell suspensions were incubated for 45 min at 4°C in the dark with mouse monoclonal anti- human E-selectin (5 μL undiluted), ICAM-1(3 μL undiluted), and VCAM-1 (1 μL undiluted) that were conjugated with PE, FITC and APC, respectively (BioLegend, USA). Cell suspensions were analyzed by flow cytometry using a FACSAria-III flow cytometer (BD Biosciences, USA). A homogeneous cell population was selected by size vs. granularity in log scale for these two conditions.
2x10^4 EA.hy926 cells/slide were seeded in Lab-Tek II Chamber Slide^TM (ThermoScientific, USA) and allowed to adhere overnight. […] After 16 hours of infection, cells were fixed in 4% formaldehyde–0.1 M phosphate buffer (pH 7.3) for 10 min. Cells were blocked with 3% bovine serum albumin for 1 hour. Then, cells were incubated with monoclonal antibodies against E-selectin (1:100), VCAM-1 (1:250) and ICAM-1 (1:100) (from Abcam, UK) overnight at 4°C. The samples were washed with PBS and incubated with anti-rabbit IgG that had been conjugated with fluorescein (1:100) from Sigma-Aldrich for 1 h. Finally, nuclei were stained with DAPI for 5 minutes and mounted with Dako Fluorescence Mounting (Dako, USA). The cells were photographed using a Nikon Eclipse 400 fluorescence microscope (Nikon, Japan), and images were analyzed by mean intensity using ImageJ software (ImageJ 1.47v).

[2] = tested on: NF-κB pathway (p-IKK, p-IκB) in T. cruzi-infected EA.hy926 cells; test: IKK and IκB phosphorylation by Western blot; details: exogenous 15-epi-LXA4 for 24 hours before T. cruzi 1 hour
Description: 5x10^5 endothelial cells were rinsed once with PBS and scraped. Proteins were extracted into 100 μL RIPA buffer plus a protease and phosphatase inhibitor cocktail (Radio-Immunoprecipitation Assay; Millipore Corporation, USA) at 4°C. Total protein was quantified with the Lowry assay. Samples in loading buffer (10% SDS, 50% glycerol, 0.5 M Tris, 0.1% bromophenol blue, and 1 M dithiothreitol, pH 6.8) were electrophoretically separated by 10% SDS-PAGE and transferred to a nitrocellulose membrane. Nitrocellulose membranes were incubated with blocking solution (5% w/v nonfat dry milk, 0.1% Tween-20 in Tris-buffered saline) at room temperature for 1 hour. Then, the membranes were incubated at 4°C overnight with 1 mL solution of primary antibodies against E-selectin (1:1000) and α-Tubulin (1:10.000) from Sigma-Aldrich, ICAM-1 (1:2000) and VCAM-1 (1:1000) from Abcam, 7 ml solution of p-IKK (1:1000), IKK (1:1000), p-IκB (1:1000) and IκB (1:1000) from Cell signaling (Cell Signaling Technologies, USA). Bound antibodies were detected with horseradish peroxidase-conjugated secondary antibodies and visualized by Lumminata forte (Millipore). The nitrocellulose was stripped between reprobes using Mild stripping (Millipore) for 10 minutes. Developed films were scanned, and band densitometry was analyzed using ImageJ software (ImageJ 1.47v).

[3] = tested on: NF-κB p65 in T. cruzi-infected EA.hy926 cells; test: Nuclear p65 localization by confocal microscopy; details: 100 nM 15-epi-LXA4 before T. cruzi 1 hour
Description: 2x10^4 EA.hy926 cells were seeded in Lab-Tek II Chamber Slides^TM for 12 hours. Cells were fixed in 3.7% formaldehyde–0.1 M phosphate buffer (pH 7.3) for 10 min. They were then washed with cytoskeletal buffer followed by permeabilization for 5 min with Triton-X100 0.5%. Cells were blocked with 3% bovine serum albumin for 1 hour. […] The samples were washed with PBS and incubated with anti-rabbit IgG conjugated with fluorescein (1:100) from Sigma-Aldrich for 1 hour. Finally, nuclei were stained with DAPI for 5 minutes and mounted in Dako fluorescence mounting media. The cells were photographed and ten pictures per well were obtained; images were analyzed using ImageJ software (ImageJ 1.47v).

Row | Structure (SMILES) | Endothelial adhesion molecule expression ([1]; 1 and 10 nM 15-epi-LXA4 for 24 hours before 16 hours infection) | IKK-IκB pathway activity [2] | Nuclear p65 migration [3] | ICAM expression in presence of simvastatin plus 5-lipoxygenase inhibitor ([1]; 5 μM simvastatin with AA-861 (50 μM) for 24 hours before 16 hours infection)
1 | CCCCC[C@@H](O)/C=C/C=C\C=C\C=C\[C@@H](O)[C@@H](O)CCCC(=O)O [15-epi-LXA4, 15-epi-lipoxin A4] | reduced endothelial adhesion molecule expression | decreased IKK-IκB pathway activity in a dose-dependent fashion | decreased nuclear p65 migration | 
2 | CC1=C(C)C(=O)C(CCCCC#CCCCC#CCO)=C(C)C1=O [AA-861, 2-(12-hydroxydodeca-5,10-diynyl)-3,5,6-trimethyl-p-benzoquinone] |  |  |  | ICAM expression was restored
